The target in this assay is DPP4 (Homo sapiens, UniProt P27487). Kind of assay: DPP4 activity assay (DPP4 inhibitor screening assay kit, Cayman).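 On all read-outs here: fluorescence read at excitation 360 nm and emission 460 nm after the enzyme reaction ran 30 min at 37 °C in a 96-well plate.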 The conditions noted are these: for remaining activity at 10 µM: 0.5 h. On the set-up: purchased Cayman Chemical, Ann Arbor, MI, USA. Type of assay: biochemical.
Where [1] appears, read: 10 µM, control mean 100.0, Figure 1A raw data, read-out: DPP4 activity in library screen, Exp 1.
The mark [2] stands for this setting: 10 µM, control mean 100.0, Figure 1A raw data, read-out: DPP4 activity in library screen, Exp 2.
Where [3] appears, read: 10 µM, control mean 100.0, Figure 1A raw data, read-out: DPP4 activity in library screen, Exp 3.
Setting [4] is: 10 µM, control mean 100.0, mean of Exp 1-3, read-out: DPP4 activity in library screen, Mean.
[5] abbreviates: read-out: DPP4 activity in library screen, Exp 1.
Where [6] appears, read: read-out: DPP4 activity in library screen, Exp 2.
The mark [7] stands for this setting: read-out: DPP4 activity in library screen, Exp 3.
The mark [8] stands for this setting: read-out: DPP4 activity in library screen, Mean.
Where [9] appears, read: 10 µM, control mean 100.0, Figure 1A raw data.
The mark [10] stands for this setting: 10 µM, control mean 100.0, mean of Exp 1-3.

Read-outs that look alike come from different tables or passages of the source.

Chain of DPP4 (P27487 whole entry): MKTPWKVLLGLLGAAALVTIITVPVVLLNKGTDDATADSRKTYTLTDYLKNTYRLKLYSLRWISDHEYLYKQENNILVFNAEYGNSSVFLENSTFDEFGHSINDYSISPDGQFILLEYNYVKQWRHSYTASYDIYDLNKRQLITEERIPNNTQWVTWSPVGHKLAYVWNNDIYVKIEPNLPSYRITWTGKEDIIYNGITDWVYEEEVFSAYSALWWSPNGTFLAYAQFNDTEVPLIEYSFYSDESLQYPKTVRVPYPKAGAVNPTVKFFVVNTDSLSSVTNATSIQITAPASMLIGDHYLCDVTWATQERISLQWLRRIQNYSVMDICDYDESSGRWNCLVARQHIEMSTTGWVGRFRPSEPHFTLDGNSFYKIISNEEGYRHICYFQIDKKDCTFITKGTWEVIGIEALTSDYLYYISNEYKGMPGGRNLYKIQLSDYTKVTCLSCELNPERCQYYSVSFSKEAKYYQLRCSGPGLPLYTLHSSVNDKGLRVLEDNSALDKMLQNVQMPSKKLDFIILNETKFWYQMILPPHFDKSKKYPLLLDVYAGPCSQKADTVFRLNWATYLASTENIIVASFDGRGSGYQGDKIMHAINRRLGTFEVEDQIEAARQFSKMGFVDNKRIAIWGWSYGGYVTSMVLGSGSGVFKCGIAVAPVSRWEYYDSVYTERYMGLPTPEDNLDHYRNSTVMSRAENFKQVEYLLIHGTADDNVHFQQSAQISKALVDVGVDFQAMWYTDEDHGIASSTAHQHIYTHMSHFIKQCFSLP

On to `COc1c(O)cc2c(c1O)[C@@H]1O[C@H](CO)[C@@H](O)[C@H](O)[C@H]1OC2=O` [Bergenin], for which the remaining activity at 10 µM worked out at 114% under setting [1], 102% under setting [2], 73.5% under setting [3] and 96.3% under setting [4].
On to `CC(C)(C)[C@]1(O)CC2OC(=O)CC23C(=O)OC2OC(=O)[C@H](O)C231` (some centres unmarked) [Bilobalide], for which the remaining activity at 10 µM is 97.2% under setting [5], 94.5% under setting [6], 103% under setting [7] and 98.2% under setting [8].
`COc1ccc(-c2coc3cc(O)cc(O)c3c2=O)cc1` [Biochanin A]: under setting [9], the “DPP4 activity in library screen, Exp 1” value stood at 94.6; the “DPP4 activity in library screen, Exp 2” value worked out at 100.9; the “DPP4 activity in library screen, Exp 3” value was 85.2. Under setting [10], the “DPP4 activity in library screen, Mean” value amounted to 93.6.
Turning to `CCCC[N+]1(C)[C@@H]2C[C@@H](OC(=O)[C@H](CO)c3ccccc3)C[C@H]1[C@@H]1O[C@@H]12` (some centres unmarked) [Butylscopolamine bromide], the remaining activity at 10 µM reads like this: under setting [1], 97.5%; under setting [2], 98.7%; under setting [3], 78.2%; under setting [4], 91.5%.
On to `CCCCCCCCCCCCCCCC(=O)OC[C@@]1(O)C[C@@]23CC[C@@H]4c5ccoc5CC[C@@]4(C)[C@@H]2CC[C@@H]1C3` [Cafestol palmitate], for which, under setting [9], the “DPP4 activity in library screen, Exp 1” value is recorded as 96.3; the “DPP4 activity in library screen, Exp 2” value is recorded as 108.3; the “DPP4 activity in library screen, Exp 3” value is recorded as 144. The “DPP4 activity in library screen, Mean” value under setting [10] is listed as 116.2.
In the case of `CN1CC[C@]23c4ccccc4N[C@H]1[C@]21CCN(C)[C@H]3Nc2ccccc21` [Calycanthine], under setting [9], the “DPP4 activity in library screen, Exp 1” value is 98.1; the “DPP4 activity in library screen, Exp 2” value turned out to be 98.8; the “DPP4 activity in library screen, Exp 3” value worked out at 109.2. Besides, the “DPP4 activity in library screen, Mean” value under setting [10] came out at 102.0.
The matching figures for `CCC1=C[C@@H]2CN3CCc4c([nH]c5ccccc45)[C@@](C(=O)OC)(C2)[C@@H]13` [Catharanthine]: 117.2, 93.7, 139.2 and 116.7.
As for `O=C(/C=C/c1ccc(O)c(O)c1)O[C@@H]1C[C@](O)(C(=O)O)C[C@@H](O)[C@H]1O` [Chlorogenic Acid], the remaining activity at 10 µM was found to be 71.3% under setting [1], 81.8% under setting [2], 102% under setting [3] and 84.9% under setting [4].
Taken in the same sequence, the figures for `O=c1cc(-c2ccccc2)oc2cc(O)cc(O)c12` [Chrysin] were 85.4%, 87.6%, 71.2% and 81.4%.
On to `C=C[C@H]1CN2CC[C@H]1C[C@H]2[C@H](O)c1ccnc2ccccc12` [Cinchonidine], for which the remaining activity at 10 µM under setting [1] worked out at 90.5%, the remaining activity at 10 µM under setting [2] was determined as 97.4%, the remaining activity at 10 µM under setting [3] was 97.3% and the remaining activity at 10 µM under setting [4] worked out at 95.1%.
On to `C[C@H]1COC2=C1C(=O)C(=O)c1c2ccc2c1CCCC2(C)C` [Cryptotanshinone], for which the remaining activity at 10 µM is, setting by setting: under setting [1], 60.3%; under setting [2], 66.5%; under setting [3], 58.2%; under setting [4], 61.7%.
`C=C1C[C@@]2(O)O[C@@]3(C[C@H]2C(C)C)[C@@H](C)CC[C@@H]13` [Curcumol]: under setting [9], the “DPP4 activity in library screen, Exp 1” value came to 100.6; the “DPP4 activity in library screen, Exp 2” value came out at 99.6; the “DPP4 activity in library screen, Exp 3” value worked out at 110.6. The “DPP4 activity in library screen, Mean” value under setting [10] is reported as 103.6.
Taken in the same sequence, the figures for `Cl.N=c1ccn2c(n1)O[C@H]1[C@H](O)[C@@H](CO)O[C@H]12` [Cyclocytidine HCl] were 110.3, 95, 97.8 and 101.0.
`O=c1cccc2n1C[C@@H]1CNC[C@H]2C1` [Cytisine]: the remaining activity at 10 µM under setting [5] was 90.3%, the remaining activity at 10 µM under setting [6] is 91%, the remaining activity at 10 µM under setting [7] worked out at 109% and the remaining activity at 10 µM under setting [8] stood at 96.7%.
On to `OC[C@@H](O)[C@@H](O)[C@H](O)[C@H](O)CO` [D-Mannitol], for which the remaining activity at 10 µM came to 96% under setting [1], 95.6% under setting [2], 83.5% under setting [3] and 91.7% under setting [4].
Taken in the same sequence, the figures for `C[C@H]1[C@@H](O)O[C@@H]2O[C@@]3(C)CC[C@H]4[C@H](C)CC[C@@H]1[C@@]24OO3` [Dihydroartemisinin (DHA), Dihydroartemisinin] were 97.1%, 91%, 88.2% and 92.1%.
Taken in the same sequence, the figures for `O=C1c2c(O)cc(O)cc2O[C@H](c2cc(O)c(O)c(O)c2)[C@H]1O` [Dihydromyricetin] were 101%, 88.8%, 72.1% and 87.3%.
Taken in the same sequence, the figures for `C[C@@H]1CC[C@@]2(OC1)O[C@H]1C[C@H]3[C@@H]4CC=C5C[C@@H](O[C@@H]6O[C@H](CO)[C@@H](O[C@@H]7O[C@@H](C)[C@H](O)[C@@H](O)[C@H]7O)[C@H](O)[C@H]6O[C@@H]6O[C@@H](C)[C@H](O)[C@@H](O)[C@H]6O)CC[C@]5(C)[C@H]4CC[C@]3(C)[C@H]1[C@@H]2C` [Dioscin] were 100%, 100%, 79.1% and 93.1%.
`COc1ccc(-c2cc(=O)c3c(O)cc(O)cc3o2)cc1O` [Diosmetin]: the remaining activity at 10 µM is, setting by setting: under setting [1], 77.2%; under setting [2], 77.5%; under setting [3], 77.6%; under setting [4], 77.4%.
Taken in the same sequence, the figures for `COc1ccc(-c2cc(=O)c3c(O)cc(O[C@@H]4O[C@H](CO[C@@H]5O[C@@H](C)[C@H](O)[C@@H](O)[C@H]5O)[C@@H](O)[C@H](O)[C@H]4O)cc3o2)cc1O` [Diosmin] were 66.8%, 69%, 74.6% and 70.1%.
The matching figures for `CC1(C)[C@@H](O)CC[C@]2(C)[C@H]3C(=O)C=C4[C@@H]5C[C@@](C)(C(=O)O)CC[C@]5(C)CC[C@@]4(C)[C@]3(C)CC[C@@H]12` [Enoxolone]: 84.3%, 87%, 95.5% and 88.9%.
As to `O=c1ccc2cc(O[C@@H]3O[C@H](CO)[C@@H](O)[C@H](O)[C@H]3O)c(O)cc2o1` [Esculin], under setting [10], the “DPP4 activity in library screen, Mean” value is reported as “auto-fluorescence”.
Turning to `COc1cc(/C=C/C(=O)O)ccc1O` [Ferulic Acid], under setting [9], the “DPP4 activity in library screen, Exp 1” value is on record as 97.5; the “DPP4 activity in library screen, Exp 2” value came out at 83.7; the “DPP4 activity in library screen, Exp 3” value is recorded as 98. For the same compound, the “DPP4 activity in library screen, Mean” value under setting [10] is listed as 93.1.

For the origin of these results see publication PMC5428354, “Screening of a natural compound library identifies emodin, a natural compound from Rheum palmatum Linn that inhibits DPP4” (PeerJ, 2017).
